Results: patent US7390836B2, “Small molecules used to increase cell death” (priority 1999, dated 2008)
Read-outs that look alike come from different tables or passages of the source. Peptide text beside a SMILES is read from it. * marks the point of attachment. Cbz = O=C(OCc1ccccc1)*; CH2F = FC*

Key:
Jurkat cells = experiment: Cytotoxicity by MTS assay and propidium iodide uptake; format: cell-based
Protocol: Since BH3Is induce apoptosis, their mode of action, for example, through disruption of BH3 domain interactions, was investigated next. If apoptosis induced by a BH3I is BH3-dependent, then cytotoxicity should correlate with the compound's ability to disrupt BH3 domain interactions in vitro. To examine this possibility, Jurkat cells were treated with the BH3 Is and the occurrence of cell death was assayed by the MTS assay and propidium iodide (PI) uptake (FIG. 7A). The cytotoxicity of BH3-Is followed the order of BH3I-2′>BH3I-2>BH3I-2″>BH3I-1>BH3I-1′>BH3I-1″>BH3I-1′″ which paralleled the order of their Ki values determined using in vitro Bcl-xL binding assays (FIGS. 7B and 7C). Similar data were obtained using a trypan blue exclusion assay.

Bcl-xL = molecular target: T1, Bcl-xL (Homo sapiens, UniProt Q07817, DEL45-84); experiment: NMR titration of Bcl-xL; format: binding; details: rank order
T1 construct: His6 (C); made in house
T1 sequence (Q07817 with tags, fused parts or gaps DEL45-84 limits assumed): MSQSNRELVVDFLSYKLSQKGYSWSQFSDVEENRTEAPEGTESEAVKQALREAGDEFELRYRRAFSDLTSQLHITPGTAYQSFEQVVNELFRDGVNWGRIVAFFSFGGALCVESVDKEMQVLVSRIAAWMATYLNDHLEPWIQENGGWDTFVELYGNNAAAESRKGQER
Protocol: To verify this conclusion, NMR titrations of Bcl-xL with BH3I-1s were performed and their Ki values were determined (FIG. 4). […] The BH3I-1s Ki values obtained by the NMR approach agree with the results of both pulldown and SELDI analyses. Therefore, the order of affinities of BH3Is is: BH312′>BH3I-2>BH3I-2″>BH3I-1>BH3I-1′>BH3I-1″>BH3I-1′″.
NMR titration was used to examine whether BH3Iinteracts with the binding pocket of Bcl-xL in a manner similar to Bak BH3 peptide (Hajduk et al., Science 278:497-499, 1997).
Next, changes in Bcl-xL structure upon addition of increasing amounts of BH3Is were determined. Each of the BH3Is induced significant changes in the Bcl-xL structure. The compounds targeted the hydrophobic cleft formed by the BH1, BH2, and BH3 domains on the surface of the Bcl-xL protein, and primarily bound to the area formed by BH1 and BH2 domains.

HeLa cells = experiment: Cell death by ATP levels after zVAD-fmk pretreatment; format: cell-based; details: zVAD-fmk 100 μM pretreatment, 48 or 72 hours
Protocol: The conditions under which cell death occurs in the presence of BH3Is were further evaluated. HeLa cells were pretreated with zVAD-fmk (100 μM) for 1 hour. The purpose of such a treatment was to inhibit the intracellular pathways mediating cell death by apoptosis. Each of the chemical compounds BH3I-1, BH3I-1′, or BH3I-2 was then added to the media of the cells of three separate samples. After 48 or 72 hours of exposure of the cells to zVAD-fmk and the chemical compound, the level of cell death was measured for each sample, by measuring cellular ATP levels.

[1] = system: Bak BH3 peptide / Bcl-xL (Bcl-xL/GST, Bcl-xL-His6) interaction; experiment: Fluorescence polarization assay, labeled Bak BH3 peptide binding to Bcl-xL fusion protein; details: for order of affinities of BH3Is: overall rank order from FP, NMR, pulldown and SELDI results; for order of decreasing affinity, fluorescence polarization assays: rank order
Description: We have used a fluorescence polarization assay to screen a library of 16,000 chemical compounds (ChemBridge, San Diego, Calif.) to identify small molecules that inhibit the interaction between a peptide corresponding to the BH3 domain of a pro-apoptotic protein and a recombinant Bcl-xL/GST fusion protein. In this assay, an […] peptide corresponding to the BH3 domain of Bak was used. The Bak peptide was labeled with a fluorescent tag, such as OREGON GREEN. Upon binding of the tagged peptide to the Bcl-xL/GST fusion protein, the polarization of light emitted by the tagged peptide is altered. […] Conversely, in a sample in which a compound does inhibit the interaction between the Bak peptide and the Bcl-xL/GST fusion protein the polarization of light emitted by the peptide will not be altered.
A nineteen amino acid Bak peptide, corresponding to the BH3 domain of Bak, with the sequence […] (SEQ ID NO: 2) was labeled with the fluorophore OREGON GREEN according to the manufacturer's instructions (Molecular Probes, Eugene, Oreg.). In addition, a recombinant Bcl-xL/GST fusion protein was generated using conventional techniques known to those skilled in the fields of biochemistry and molecular biology. The interaction between the Bak peptide and the Bcl-xL/GST fusion protein was confirmed.
A screen of approximately 16,000 compounds from the ChemBridge chemical compound library was conducted to identify compounds that disrupt the interaction between the Bak peptide and the Bcl-xL/GST fusion protein. The ability of a compound to disrupt the interaction between the two polypeptides was assessed using a fluorescence polarization assay. The Bak peptide and Bcl-xL/GST fusion protein (15 nM each; dissolved in PBS) were first combined, and then the compound was added. Alternatively, the Bak peptide, Bcl-xL/GST fusion protein, and test compound (5 mg/ml; dissolved in 0.1-0.5 gl of DMSO) may be combined in any order. Normally the unbound Bak polypeptide results in polarization of approximately 40 mP units. Upon binding of the Bcl-xL/GST fusion protein, polarization increased to approximately 100-120 mP units.
In a preferred method, the fluorescence assay was carried out as follows. Bak BH3 peptide (Research Genetics) was labeled using NHS-OREGON GREEN (Molecular Probes) and purified by HPLC. For the initial screening assays, 33 nM of labeled BH3 peptide, 2 μM of GST-Bcl-xL protein, 0.1% bovine gamma globulin (BGG, Sigma) and 1 mM DTT mixed with PBS, pH 7.2 (Gibco) were added into 384 well black plates (Lab Systems) using MULTIDROP (Lab Systems). Small molecules (5 mg/ml in DMSO, ChemBridge) were transferred using plastic 384-pin arrays (Genetix). The plates were incubated for 1-2 hr at 25° C., and the fluorescence polarization assay values were determined using an Analyst plate reader (LJL Biosystems). Reactions containing 16.65 nM of labeled BH3 peptide and 4.2 μM of Bcl-xL-His6 fusion protein, which was previously utilized to characterize BH3/Bcl-xL binding (Sattler et al., Science 275:983-6, 1997) were used for the further fluorescence polarization analyses. Kd and Ki determination was performed as previously described using […] PRISM software package (GraphPad) (Dandliker et al., Methods Enzymol. 74:3-28,1981).
In a further screen, various concentrations of each of the above-identified compounds were evaluated for their potency. A serial dilution of each chemical compound was performed and the fluorescence polarization assay was repeated, as per the primary screen. As a result of the secondary screening, three compounds, chemical compound ID numbers 275805 (BH3I-1; FIG. 1), 282986 (BH3I-1′; FIG. 2), and 175362 (BH3I-2; FIG. 3), collectively termed “BH3Is,” were identified to disrupt the interaction between Bak and the BCL-xL/GST fusion protein. […] Additional homologues of the BH3I-1s (BH3I-1″ and BH3I-1′″) and BH3I-2 (BH3-2″ and BH3I-2″) were also analyzed in the study (FIG. 4). […]

[2] = system: HeLa cells that stably overexpress human BCL-XL; experiment: Cell death by ATP levels in Bcl-xL overexpressing cells after zVAD-fmk pretreatment; format: cell-based; details: zVAD-fmk 100 μM pretreatment, 48 or 72 hours
Protocol: In another study, HeLa cells that stably overexpress human BCL-XL, and are therefore more resistant to cell death, were pretreated with zVAD-fmk (100 μM) for 1 hour, as described above. Each of the chemical compounds BH3I-1, BH3I-1′, and BH3I-2 from the ChemBridge library was then added to the media of the cells of three separate samples. After 48 or 72 hours of exposure of the cells to zVAD-fmk and the chemical compound, the level of cell death was measured for each sample, by measuring cellular ATP levels.

HeLa cells, Jurkat cells = experiment: Caspase dependence of BH3I-induced cell death (zVAD-fmk); format: cell-based; details: Hoechst dye
Protocol: FIG. 10A is a graph showing the comparison of BH3Is and Bax induced cell death. HeLa cells were transfected with YFP-Bax and pEYFP-C 1 for 48 hr in the absence (open bars) or presence (closed bars) of 100 μM zVAD-fmk. YFP transfected cells were also treated with BH3I-1 (100 μM) or BH3I-2 (50 μM) for 48 hours. Cell viability was determined by propidium iodide (PI) staining and microscopic examination of PI/YFP positive cells. Numbers represent the percentage of PI positive cells in the YFP positive population. The values of standard deviation are also shown.
FIG. 10B is a graph showing the attenuation of BH3Is' cytotoxicities by the pan-caspase inhibitor zVAD-fmk. Jurkat cells were treated with BH3I-1 or BH3I-2 in the presence (open bars) or absence (closed bars) of 100 μM zVAD-fmk (Alexis) for 48 hr. Cell death was determined using an MTS assay. Numbers represent the percentages of cell death, normalized relative to a DMSO treated control, which was set at 100% viability. Standard deviation values are also shown.
FIG. 10C is a set of images of cells showing that nuclear fragmentation, but not cytochrome c release, induced by BH3Is, requires caspases. […]
FIG. 10D-1-10D-6 are a series of graphs showing DNA fragmentation analysis of Jurkat cells treated with BH3Is and zVAD-fmk. […] Samples were analyzed by FACS, and the percentage of subG1 DNA is shown for each sample. […]

[3] = MTS assay and PI uptake, rank order

Structure (SMILES) | order of cytotoxicity (Jurkat cells; [3]) | relative order of affinities, NMR titrations (Bcl-xL) | cellular ATP levels (HeLa cells) | order of affinities of BH3Is [1] | order of decreasing affinity, fluorescence polarization assays [1] | cellular ATP levels [2] | order of cytotoxicity (Jurkat cells) | protection from BH3I-induced nuclear fragmentation (HeLa cells, Jurkat cells)
CC(C)C(C(=O)O)N1C(=O)/C(=C/c2ccc(Cl)cc2)SC1=S (stereo not shown) [BH3I-1′] | BH3I-2′>BH3I-2>BH3I-2″>BH3I-1>BH3I-1′>BH3I-1″>BH3I-1′″ | BH3I-1>BH3I-1′>BH3I-1″>BH3I-1′″ | cellular ATP levels decreased | BH312′>BH3I-2>BH3I-2″>BH3I-1>BH3I-1′>BH3I-1″>BH3I-1′″ | BH3I-1>BH3I-1′>BH3I-2′>BH3I-2>BH3I-2″>BH3I-1″ | cellular ATP levels decreased | – | –
CC(C)C(C(=O)O)N1C(=O)/C(=C/c2ccc(N(C)C)cc2)SC1=S (stereo not shown) [BH3I-1′″] | – | BH3I-1>BH3I-1′>BH3I-1″>BH3I-1′″ | – | BH312′>BH3I-2>BH3I-2″>BH3I-1>BH3I-1′>BH3I-1″>BH3I-1′″ | – | – | BH3I-2′>BH3I-2>BH3I-2″>BH3I-1>BH3I-1′>BH3I-1″>BH3I-1′″ | –
O=C(Nc1cc(S(=O)(=O)c2ccc(Cl)cc2)ccc1Cl)c1cc(Cl)cc(I)c1O [BH3I-2′] | BH3I-2′>BH3I-2>BH3I-2″>BH3I-1>BH3I-1′>BH3I-1″>BH3I-1′″ | – | – | BH312′>BH3I-2>BH3I-2″>BH3I-1>BH3I-1′>BH3I-1″>BH3I-1′″ | BH3I-1>BH3I-1′>BH3I-2′>BH3I-2>BH3I-2″>BH3I-1″ | – | – | –
O=C(Nc1cc(S(=O)(=O)c2ccc(Cl)cc2)ccc1Cl)c1cc(I)cc(I)c1O [BH3I-2″] | BH3I-2′>BH3I-2>BH3I-2″>BH3I-1>BH3I-1′>BH3I-1″>BH3I-1′″ | – | – | BH312′>BH3I-2>BH3I-2″>BH3I-1>BH3I-1′>BH3I-1″>BH3I-1′″ | BH3I-1>BH3I-1′>BH3I-2′>BH3I-2>BH3I-2″>BH3I-1″ | – | – | –
COC(=O)C[C@H](NC(=O)[C@H](C)NC(=O)[C@@H](NC(=O)OCc1ccccc1)C(C)C)C(=O)CF [zVAD-fmk] (Cbz-Val-Ala-Asp(OMe)-CH2F) | – | – | – | – | – | – | – | completely protected cells from BH3I-induced nuclear fragmentation
